Measurements as given in patent US9302999B2, “Substituted triazoles as herbicides” (E. I. DU PONT DE NEMOURS AND COMPANY, priority 2012, dated 2016).

How the values were obtained:
Format in all cases: in vivo
[1] = system: velvetleaf (Abutilon theophrasti); test: Test A pre-/postemergence: velvetleaf
Outline: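 Soil medium was loam blended with sand; treatments pre- and postemergence were applied concurrently, postemergence at one- to two-leaf stage. Approximately ten days in greenhouse preceded visual comparison with untreated controls, scored 0 (no effect) to 100 (complete control).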

[2] = system: rice (Oryza sativa); test: Test B flooded paddy: rice; conditions: Flood; 250 g ai/ha; applied to paddy water at 2-leaf stage; visually evaluated after 13 to 15 days
Outline: (§1)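 Plants were grown to the 2-leaf stage, then pots were flooded to 3 cm above the soil and compounds were applied directly into the paddy water. Water depth was held for the whole test; after 13 to 15 days in a greenhouse, injury was visually rated against untreated controls (0 = no effect, 100 = complete control).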

[3] = system: barnyardgrass (Echinochloa crus-galli); test: Test B flooded paddy: barnyardgrass; conditions: Flood; 250 g ai/ha; applied to paddy water at 2-leaf stage; visually evaluated after 13 to 15 days
Outline: as §1

[4] = system: foxtail, green (green foxtail, Setaria viridis); test: Test C pre-/postemergence: foxtail, green
Outline: (§2)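 Preemergence on seeds in loam/sand, postemergence on 2–18 cm (1–4-leaf) plants in peat-based medium; compounds in non-phytotoxic solvent with surfactant. After 13–15 days in greenhouse, visual rating versus controls, 0 (no effect) to 100 (complete control).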

[5] = system: winter wheat (Triticum aestivum); test: Test C pre-/postemergence: winter wheat
Outline: as §2

[6] = system: wild oat (Avena fatua); test: Test C pre-/postemergence: wild oat
Outline: as §2

[7] = system: galium (catchweed bedstraw, Galium aparine); test: Test C pre-/postemergence: galium
Outline: as §2

[8] = system: nightshade (eastern black nightshade, Solanum ptycanthum); test: Test C pre-/postemergence: nightshade; conditions: Preemergence
Outline: as §2

[9] = system: pigweed (Amaranthus retroflexus); test: Test C pre-/postemergence: pigweed
Outline: as §2

[10] = system: velvetleaf (Abutilon theophrasti); test: Test C pre-/postemergence: velvetleaf
Outline: as §2

[11] = Postemergence, 125 g ai/ha, 0 to 100 scale, 0 is no effect, 100 is complete control
[12] = Postemergence, 500 g ai/ha, visual rating on 0 to 100 scale (0 no effect, 100 complete control), approximately ten days
[13] = Preemergence, 125 g ai/ha, 0 to 100 scale where 0 is no effect and 100 is complete control
[14] = Preemergence, 500 g ai/ha, 0 to 100 scale (0 no effect, 100 complete control)
[15] = Preemergence, 31 g ai/ha, scale of 0 to 100, 0 is no effect, 100 is complete control
[16] = Preemergence, 62 g ai/ha, scale of 0 to 100, 0 is no effect, 100 is complete control
[17] = Preemergence, 125 g ai/ha, scale 0 to 100, 0 no effect, 100 complete control
[18] = Preemergence, 250 g ai/ha, scale 0 to 100, 0 no effect, 100 complete control
[19] = 62 g ai/ha, scale of 0 to 100, 0 is no effect, 100 is complete control
[20] = 125 g ai/ha, scale 0 to 100, 0 no effect, 100 complete control
[21] = 250 g ai/ha, scale 0 to 100, 0 no effect, 100 complete control
[22] = Postemergence, 31 g ai/ha, scale 0 to 100 (0 no effect, 100 complete control)
[23] = Postemergence, 62 g ai/ha, scale 0 to 100 (0 no effect, 100 complete control)
[24] = Postemergence, 125 g ai/ha, scale 0 to 100, 0 no effect, 100 complete control
[25] = Postemergence, 250 g ai/ha, scale 0 to 100
[26] = 31 g ai/ha, scale of 0 to 100, 0 is no effect, 100 is complete control

With `Cc1nn(-c2ccc(F)cc2F)nc1Oc1ccnc(C(F)(F)F)c1` [Compound 146] the “Plant response rating, Velvetleaf” value [1, 11] was 70, the “Velvetleaf plant response rating” value [1, 12] was 100 and the “Plant response rating, Velvetleaf” value [1, 13] was 10. The “Plant response rating, Velvetleaf” value [1, 14] was 50, the “Plant response rating, Rice (0 to 100 scale, 0 is no effect, 100 is complete control)” value [2] was 35 and the “Plant response rating, Barnyardgrass (0 to 100 scale, 0 is no effect, 100 is complete control)” value [3] was 50. The “Plant response rating, Foxtail, Green” value [4, 15] was 90, the “Plant response rating, Foxtail, Green” value [4, 16] was 90 and the “Plant response rating, Foxtail, Green” value [4, 17] was 90. The “Plant response rating, Foxtail, Green” value [4, 18] was 90, the “Plant response rating, Wheat” value [5, 16] was 0 and the “Plant response rating, Wheat” value [5, 17] was 0. The “Plant response rating, Wheat” value [5, 18] was 10, the “Plant response rating, Oat, Wild” value [6, 15] was 5 and the “Plant response rating, Oat, Wild” value [6, 16] was 40. The “Plant response rating, Oat, Wild” value [6, 17] was 85, the “Plant response rating, Oat, Wild” value [6, 18] was 90 and the “Plant response rating, Galium” value [7, 15] was 95. For the same compound, the “Plant response rating, Galium” value [7, 16] was 95, the “Plant response rating, Galium” value [7, 17] was 95 and the “Plant response rating, Galium” value [7, 18] was 100. The “Plant response rating, Nightshade” value [8, 19] was 35, the “Plant response rating, Nightshade” value [8, 20] was 90 and the “Plant response rating, Nightshade” value [8, 21] was 98. The “Plant response rating, Pigweed” value [9, 15] was 85, the “Plant response rating, Pigweed” value [9, 16] was 90 and the “Plant response rating, Pigweed” value [9, 17] was 100. The “Plant response rating, Pigweed” value [9, 18] was 100, the “Plant response rating, Velvetleaf” value [10, 15] was 0 and the “Plant response rating, Velvetleaf” value [10, 16] was 5. The “Plant response rating, Velvetleaf” value [10, 17] was 15 and the “Plant response rating, Velvetleaf” value [10, 18] was 60.
For `FC(F)Oc1nn(-c2ccc(C(F)(F)F)cc2)nc1Cc1ccnc(C(F)(F)F)c1` [Compound 26], the “Velvetleaf plant response rating” value [1, 11] was 100, the “Velvetleaf plant response rating” value [1, 12] was 100 and the “Plant response rating, Velvetleaf” value ([1]; Preemergence, 125 g ai/ha, 0 to 100 scale (0 no effect, 100 complete control)) was 80. For the same compound, the “Plant response rating, Velvetleaf” value ([1]; Preemergence, 500 g ai/ha, 0 to 100 scale, 0 is no effect, 100 is complete control) was 90, the “Plant response rating, Rice (0 to 100 scale, 0 is no effect, 100 is complete control)” value [2] was 80 and the “Plant response rating, Barnyardgrass (0 to 100 scale, 0 is no effect, 100 is complete control)” value [3] was 60. For the same compound, the “Plant response rating, Foxtail, Green” value [4, 22] was 30, the “Plant response rating, Foxtail, Green” value [4, 23] was 40 and the “Plant response rating, Foxtail, Green” value [4, 24] was 70. For the same compound, the “Plant response rating, Foxtail, Green” value [4, 25] was 85, the “Plant response rating, Foxtail, Green” value [4, 15] was 85 and the “Plant response rating, Foxtail, Green” value [4, 16] was 95. For the same compound, the “Plant response rating, Foxtail, Green” value [4, 17] was 95, the “Plant response rating, Foxtail, Green” value [4, 18] was 95 and the “Plant response rating, Wheat” value [5, 22] was 10. For the same compound, the “Plant response rating, Wheat” value [5, 23] was 20, the “Plant response rating, Wheat” value [5, 24] was 30 and the “Plant response rating, Wheat” value [5, 25] was 35. The “Plant response rating, Wheat” value [5, 15] was 0, the “Plant response rating, Wheat” value [5, 16] was 5 and the “Plant response rating, Wheat” value [5, 17] was 30. For the same compound, the “Plant response rating, Wheat” value [5, 18] was 30, the “Plant response rating, Oat, Wild” value [6, 22] was 10 and the “Plant response rating, Oat, Wild” value [6, 23] was 30. The “Plant response rating, Oat, Wild” value [6, 24] was 40, the “Plant response rating, Oat, Wild” value [6, 25] was 85 and the “Plant response rating, Oat, Wild” value [6, 15] was 45. The “Plant response rating, Oat, Wild” value [6, 16] was 70, the “Plant response rating, Oat, Wild” value [6, 17] was 70 and the “Plant response rating, Oat, Wild” value [6, 18] was 95. For the same compound, the “Plant response rating, Galium” value [7, 22] was 50, the “Plant response rating, Galium” value [7, 23] was 55 and the “Plant response rating, Galium” value [7, 24] was 75. For the same compound, the “Plant response rating, Galium” value [7, 25] was 75, the “Plant response rating, Galium” value [7, 15] was 50 and the “Plant response rating, Galium” value [7, 16] was 75. For the same compound, the “Plant response rating, Galium” value [7, 17] was 100, the “Plant response rating, Galium” value [7, 18] was 100 and the “Plant response rating, Nightshade” value [8, 26] was 55. For the same compound, the “Plant response rating, Nightshade” value [8, 19] was 90, the “Plant response rating, Nightshade” value [8, 20] was 98 and the “Plant response rating, Nightshade” value [8, 21] was 98. The “Plant response rating, Pigweed” value [9, 23] was 60, the “Plant response rating, Pigweed” value [9, 24] was 80 and the “Plant response rating, Pigweed” value [9, 25] was 98. For the same compound, the “Plant response rating, Pigweed” value [9, 15] was 100, the “Plant response rating, Pigweed” value [9, 16] was 100 and the “Plant response rating, Pigweed” value [9, 17] was 100. The “Plant response rating, Pigweed” value [9, 18] was 100, the “Plant response rating, Velvetleaf” value [10, 22] was 25 and the “Plant response rating, Velvetleaf” value [10, 23] was 50. For the same compound, the “Plant response rating, Velvetleaf” value [10, 24] was 55, the “Plant response rating, Velvetleaf” value [10, 25] was 85 and the “Plant response rating, Velvetleaf” value [10, 15] was 25. The “Plant response rating, Velvetleaf” value [10, 16] was 35, the “Plant response rating, Velvetleaf” value [10, 17] was 75 and the “Plant response rating, Velvetleaf” value [10, 18] was 100.
For `Cc1nn(-c2ccc(C(F)(F)F)cc2)nc1Oc1ccnc(C(F)(F)F)c1` [Compound 120], the “Velvetleaf plant response rating” value [1, 11] was 50, the “Velvetleaf plant response rating” value [1, 12] was 80 and the “Plant response rating, Velvetleaf” value [1, 13] was 40. The “Plant response rating, Velvetleaf” value [1, 14] was 70, the “Plant response rating, Foxtail, Green” value [4, 22] was 15 and the “Plant response rating, Foxtail, Green” value [4, 23] was 85. The “Plant response rating, Foxtail, Green” value [4, 24] was 100, the “Plant response rating, Foxtail, Green” value [4, 25] was 100 and the “Plant response rating, Foxtail, Green” value [4, 15] was 90. For the same compound, the “Plant response rating, Foxtail, Green” value [4, 16] was 90, the “Plant response rating, Foxtail, Green” value [4, 17] was 90 and the “Plant response rating, Foxtail, Green” value [4, 18] was 90. The “Plant response rating, Wheat” value [5, 22] was 10, the “Plant response rating, Wheat” value [5, 23] was 10 and the “Plant response rating, Wheat” value [5, 24] was 35. The “Plant response rating, Wheat” value [5, 25] was 35, the “Plant response rating, Wheat” value [5, 15] was 5 and the “Plant response rating, Wheat” value [5, 16] was 25. The “Plant response rating, Wheat” value [5, 17] was 40, the “Plant response rating, Wheat” value [5, 18] was 50 and the “Plant response rating, Oat, Wild” value [6, 22] was 55. For the same compound, the “Plant response rating, Oat, Wild” value [6, 23] was 60, the “Plant response rating, Oat, Wild” value [6, 24] was 80 and the “Plant response rating, Oat, Wild” value [6, 25] was 90. For the same compound, the “Plant response rating, Oat, Wild” value [6, 15] was 85, the “Plant response rating, Oat, Wild” value [6, 16] was 90 and the “Plant response rating, Oat, Wild” value [6, 17] was 95. For the same compound, the “Plant response rating, Oat, Wild” value [6, 18] was 95, the “Plant response rating, Galium” value [7, 22] was 80 and the “Plant response rating, Galium” value [7, 23] was 80. For the same compound, the “Plant response rating, Galium” value [7, 24] was 85, the “Plant response rating, Galium” value [7, 15] was 98 and the “Plant response rating, Galium” value [7, 16] was 100. The “Plant response rating, Galium” value [7, 17] was 100, the “Plant response rating, Galium” value [7, 18] was 100 and the “Plant response rating, Nightshade” value [8, 26] was 95. The “Plant response rating, Nightshade” value [8, 19] was 95, the “Plant response rating, Nightshade” value [8, 20] was 95 and the “Plant response rating, Nightshade” value [8, 21] was 95. For the same compound, the “Plant response rating, Pigweed” value [9, 22] was 95, the “Plant response rating, Pigweed” value [9, 23] was 98 and the “Plant response rating, Pigweed” value [9, 24] was 98. For the same compound, the “Plant response rating, Pigweed” value [9, 25] was 100, the “Plant response rating, Pigweed” value [9, 15] was 100 and the “Plant response rating, Pigweed” value [9, 16] was 100. The “Plant response rating, Pigweed” value [9, 17] was 100, the “Plant response rating, Pigweed” value [9, 18] was 100 and the “Plant response rating, Velvetleaf” value [10, 22] was 20. The “Plant response rating, Velvetleaf” value [10, 23] was 45, the “Plant response rating, Velvetleaf” value [10, 24] was 55 and the “Plant response rating, Velvetleaf” value [10, 25] was 65. For the same compound, the “Plant response rating, Velvetleaf” value [10, 15] was 5, the “Plant response rating, Velvetleaf” value [10, 16] was 15 and the “Plant response rating, Velvetleaf” value [10, 17] was 35. The “Plant response rating, Velvetleaf” value [10, 18] was 100.
